Experimental data taken from US11234943B2, “Use of reservatrol for the treatment of non-alcoholic fatty liver disease (NAFLD)” (priority 2016, dated 2022).
Where “and” joins values, the source holds several entries; their conditions need not be identical. Equal entries are not always repeated.

Test system: patients with NAFLD
Test: Quantitative ultrasound liver/kidney echo measurement (liver fat), hepatic/renal value
Format: in vivo, human
Design: key to Difference (Liver Value − Kidney Value): hepatic minus renal cortex mean gray scale (US hepatic/renal value); key to Liver Value / Kidney Value: mean gray scale value of pixels within the ROI (echo intensity)
Text: A GE Log IQ5 expert Ultrasound Machine equipped with Ultrasound Transducer Probe (GE 3.5C model 2050357) The equipment can measure the Echo Level (EL) at specific areas and depths. EL measures the mean intensity of pixels within a user defined area (region of interest). Raw data provides the average sum (intensity per pixel)/pixels. The ultrasound depicts on screen the area (in cm^2), mean (intensity dB) and standard deviation (dispersion) Phantom Model 040GSE (CIRS-Multi Purpose, Multi Tissue u/s Phantom) to calibrate the Log IQ. The specific phantom simulates the human liver and kidney organs and serves for calibration.
Regarding the parameters “liver/kidney value” and “liver/kidney depth” we used the same methodology used by Ming-Feng Xia et al., Standardized Ultrasound Hepatic/Renal Ratio and Hepatic Attenuation Rate to Quantify Liver Fat Content: An Improvement Method 10.1038/oby.2011.302.
Ultrasound studies were performed by an experienced radiologist who was unaware of the patient's clinical details and laboratory findings. All the instrument settings, including gain and depth were fixed for each measurement. For assessment of ultrasound hepatic/renal echo value, ultrasound images with both liver and right kidney clearly visualized were obtained in the sagittal liver/right kidney view in the lateral position. A region of interest (ROI) was carefully selected excluding blood vessels, bile ducts and other focal hypoechoic or hyperechoic regions. Another ROI was identified in the right renal cortex with no large vessels, renal sinus or medulla. To avoid the interference of depth-depended echo-intensity attenuation and the borderline echo distorting effects, the boundary between liver and right kidney area should be placed near the center of the image, and the liver and right kidney ROIs were selected at the same depth of the ultrasound images. The gray scale mean value of the pixels within the two ROIs was used as measurement of echo intensity then we subtracted the average hepatic gray scale by the average renal cortex gray scale to calculate the US hepatic/renal value.
Standardization of ultrasound quantitative parameters was performed using an abdominal phantom.
Attenuation measurements were taken at 2 depths, at the Regions of Interest (ROI) xxcm (liver) and yycm (kidney). Attenuation was calculated by subtracting the EL (liver)−EL (kidney)=Hepato-Renal Index Difference.
In sagittal liver/right kidney view, a region of interest (ROI) of 1.5×1.5 cm (1,296 pixels) in the liver parenchyma was selected. The ROI had to be as uniform as possible, excluding blood vessels, bile ducts, and other focal hypo/hyper-echogenicity. Another ROI of 0.5×0.5 cm (144 pixels) was identified in the right renal cortex with no large vessels, renal sinus or medulla. To avoid the interference of depth-depended echo-intensity attenuation and the borderline echo distorting effects, the boundary between liver and right kidney area should be placed near the center of the image, and the liver and right kidney ROIs were selected at the same depth of the ultrasound images. The gray scale mean value of the pixels within the two ROIs was used as measurement of echo intensity. Then we subtracted the average hepatic gray scale by the average renal cortex gray scale to calculate the US hepatic/renal value.
To standardize the measured values of US H/R value and hepatic echo-intensity attenuation rate among different ultrasound machines, a 3D abdominal phantom, containing mimic abdominal organs, was used for standardization in this research.
Then, the patients were divided into two groups (randomly assigned) according to the treatment given to them. 22 patients were given treatment 50 mg RSV micronized formulation, Evelor capsules once daily, (Group A) and 22 patients were given treatment 200 mg RSV micronized formulation, Evelor capsules, once daily, (Group B). The observation period lasted for 6 months. […]

[1] = Group A, 50 mg once daily, mean at time 1 (beginning of study)
[2] = Group A, 50 mg once daily, mean at time 2 (6 months)
[3] = Group B, 200 mg once daily, mean at time 1 (beginning of study)
[4] = Group B, 200 mg once daily, mean at time 2 (6 months)
[5] = individual patients of Group A (50 mg), first ultrasound, 0 month
[6] = individual patients of Group A (50 mg), fourth ultrasound, 2.5 years from the end of the study
[7] = individual patients of Group A (50 mg), second ultrasound, 6 months
[8] = individual patients of Group A (50 mg), third ultrasound, 6 months after the end of the study
[9] = individual patients of Group B (200 mg), first ultrasound, 0 month
[10] = individual patients of Group B (200 mg), fourth ultrasound, 2.5 years from the end of the study
[11] = individual patients of Group B (200 mg), second ultrasound, 6 months
[12] = individual patients of Group B (200 mg), third ultrasound, 6 months after the end of the study

## Oc1ccc(/C=C/c2cc(O)cc(O)c2)cc1 [Resveratrol, resveratrol]
[1]
  Difference L − K value: 22.71
  Kidney Value: 32.49
  Liver Value: 55.20
[2]
  Difference L − K value: 17.00
  Kidney Value: 28.42
  Liver Value: 45.42
[3]
  Difference L − K value: 26.46
  Kidney Value: 32.30
  Liver Value: 58.77
[4]
  Difference L − K value: 18.115
  Kidney Value: 25.21
  Liver Value: 43.33
Groups A and B, end of the study
  liver fat as evidenced by ultrasound measurements: strongly statistically significant reduction
[5]
  Difference (Liver Value − Kidney Value): 14.6 and 32.9 and 20.1 and 23.3 and 43.7 and 34.3
  Kidney Value: 30.4 and 35.0 and 25.3 and 32.6 and 52.4 and 7.0
  Liver Value: 45.0 and 67.9 and 45.4 and 55.9 and 96.1 and 41.3
[6]
  Difference (Liver Value − Kidney Value): 5.5 and 9.8
  Kidney Value: 75.0 and 75.2
  Liver Value: 80.5 and 85.0
[7]
  Difference (Liver Value − Kidney Value): 12.8 and 29.5 and 11.8 and 19 and 18.5 and 20.9
  Kidney Value: 29.2 and 26.4 and 20.1 and 30.8 and 26.5 and 21.0
  Liver Value: 42.0 and 55.9 and 31.9 and 49.8 and 45.0 and 41.9
[8]
  Difference (Liver Value − Kidney Value): 16.7 and 10.3 and 24.4 and 1.6 and 17.6 and 9.4
  Kidney Value: 81.1 and 60.0 and 64.5 and 57.3 and 67.6 and 48.1
  Liver Value: 97.8 and 70.3 and 88.9 and 58.9 and 85.2 and 57.5
[9]
  Difference (Liver Value − Kidney Value): 28.2 and 35.5 and 32.3 and 47.3 and 24.1 and 20.5 and 41 and 18.8
  Kidney Value: 32.2 and 26.5 and 23.6 and 39.5 and 22.7 and 14.2 and 28.6 and 33.3
  Liver Value: 60.4 and 62.0 and 55.9 and 86.8 and 46.8 and 34.7 and 69.6 and 52.1
[10]
  Difference (Liver Value − Kidney Value): 7.9 and 5 and 17.3
  Kidney Value: 31.2 and 41.0 and 42.8
  Liver Value: 39.1 and 46.0 and 60.1
[11]
  Difference (Liver Value − Kidney Value): 14.8 and 23.9 and 19 and 34.2 and 22.2 and 7.4 and 33.5 and 16.4
  Kidney Value: 33.0 and 22.1 and 31.1 and 18.9 and 14.4 and 42.4 and 17.0 and 16.8
  Liver Value: 47.8 and 46.0 and 50.1 and 53.1 and 36.6 and 49.8 and 50.5 and 33.2
[12]
  Difference (Liver Value − Kidney Value): 13.2 and 8.9 and 22.1 and 10 and 18.3 and 13.7 and 6 and 16.8
  Kidney Value: 61.7 and 53.0 and 55.2 and 84.3 and 55.9 and 71.5 and 75.3 and 40.4
  Liver Value: 74.9 and 61.9 and 77.3 and 94.3 and 74.2 and 85.2 and 81.3 and 57.2
